Each structure is given as a SMILES string. Converted amounts (≈) assume the structure as drawn. “Also recorded” adds a separate entry of the source. Read-outs that look alike come from different tables or passages of the source.

For assay [1], the system named is Corynebacterium. Nature of the assay: MIC test, agar plate dilution method. The format is cell-based, Corynebacterium striatum. How it is done: (§1) In accordance with the agar plate dilution method of the Japanese Society of Chemotherapy (1981), the minimum inhibitory concentration of a sample was determined.
(§2) Agar plates containing a sample at predetermined concentrations were smeared with a test bacterial suspension and were incubated, and then the minimum concentration at which bacterial growth was inhibited was determined as the minimum inhibitory concentration.
(§3) A 10-fold diluted solution of a sample was prepared with purified water and was added to an agar medium at a 1/10 volume.
(§4) From the upper limit concentration, the concentration was determined by serial 2-fold dilution to about 100 μg/ml.
(§5) (1) A 70% solution was prepared (14 g was diluted in a 20-ml measuring flask).
(§6) (2) The 70% solution was diluted by 2-fold dilution. Seven to eight steps.
(§7) (3) A 1/9 volume of each solution was added to an agar medium, and the mixture was poured in a petri dish and solidified (the sample concentration was 7% or more in the agar).
(§8) A liquid culture medium containing bacteria was incubated for 16 to 20 hours, and a prepared culture medium having a bacterial concentration of about 10^6/ml was used.

Assay [2] has as its system Enterococci. In words: MIC test, agar plate dilution method. Type of assay: cell-based, Enterococcus faecalis. How it is done:
as §1, §2, §3, §4, §5, §6, §7, §8

Assay [3] has as its system E. coli. Nature of the assay: MIC test, agar plate dilution method. The format is cell-based, Escherichia coli. As for the experimental part: as §1, §2, §3, §4, §5, §6, §7, §8
For assay [4], the system named is Staphylococcus aureus. In words: MIC test, agar plate dilution method. The format is cell-based, Staphylococcus aureus subsp. (MSSA). How it is done: as §1, §2, §3, §4, §5, §6, §7, §8
The subject of assay [5] is MRSA. In words: MIC test, agar plate dilution method. Type of assay: cell-based, Staphylococcus aureus (MRSA). How it is done:
as §1, §2, §3, §4, §5, §6, §7, §8

Assay [6] concerns Pseudomonas aeruginosa. Nature of the assay: MIC test, agar plate dilution method. Type of assay: cell-based. As for the experimental part: as §1, §2, §3, §4, §5, §6, §7, §8
Assay [7] relates to Staphylococcus epidermidis. In words: MIC test, agar plate dilution method. Type of assay: cell-based. How it is done: as §1, §2, §3, §4, §5, §6, §7, §8
The subject of assay [8] is test bacteria. Nature of the assay: MIC test, summary statements for the test bacteria as a whole. Type of assay: cell-based. As for the experimental part:
as §1, §2
Drug concentration 128 μg/ml grown bacteria A+ B− C−
Drug concentration 64 μg/ml grown bacteria A+ B+ C−
Drug concentration 32 μg/ml grown bacteria A+ B+ C+

Assay [9] has as its system normal rats (SD rats). In words: Blood glucose level after intraperitoneal administration of peritoneal dialysate, normal rat models, Test Example 1. The format is in vivo. How it is done: As shown in the protocol in FIG. 1, normal rats (6-week-old male SD rats, a weight of 155 to 170 g/body) were fasted for 24 hours, then the weights and fasting blood glucose levels were determined, and the rats were randomly separated into four groups.
As the administration solutions, a solution containing only glucose at a concentration of 4%, a solution having a sugar concentration of 4% in which D-allose was contained at 5% and glucose was contained at 95%, a solution having a sugar concentration of 4% in which D-allose was contained at 10% and glucose was contained at 90%, and a solution having a sugar concentration of 4% in which D-allose was contained at 25% were prepared, and each osmotic pressure of the four solutions was determined.
(§9) For the normal rats, blood samples were collected from the tail veins, and the blood glucose (blood sugar) levels were determined by using a commercially available blood glucose meter.
The results were subjected to Tukey-Kramer test by using an analysis software, JMP, and no significant difference was observed.

The subject of assay [10] is diabetic model rats (SDT fatty rats). Nature of the assay: Blood glucose level after intraperitoneal administration of peritoneal dialysate, diabetic model rats, Test Example 1. Type of assay: in vivo, rat. As for the experimental part:
As shown in the protocol in FIG. 4, 12- to 13-week-old male SDT fatty rats (a weight of 360 to 460 g) as diabetic model rats were fasted for 24 hours, then the weights and fasting blood glucose levels were determined, and the rats were randomly separated into two groups. As the administration solutions, a solution containing only glucose at a concentration of 4%, a solution having a sugar concentration of 4% in which D-allose was contained at 10% and glucose was contained at 90% were prepared, and each osmotic pressure of the two solutions was determined.
The diabetic model rats had more weights and higher fasting blood glucose levels than those of the normal rats. Blood samples were difficult to collect from the tails of the diabetic rats and thus were collected from the jugular vein, and blood glucose levels were determined by using the same blood glucose meter as above. The model rats had diabetes, and thus the blood glucose level increase was slow as compared with the normal rats.

Assay [11] relates to normal rats (SD rats). Nature of the assay: Blood glucose level after intraperitoneal administration of PDF-based dialysate, normal rat models, Test Example 2. The format is in vivo. To be noted: PDF-based solutions. How it is done:
Next, a peritoneal dialysis fluid (PDF) was prepared, solutions containing glucose in a constant total amount of (0.432 g) were prepared, and D-allose was added to the solution at a predetermined ratio to give the following two peritoneal dialysates having a sugar concentration of 4% by weight and an osmotic pressure of 500 mOsm/L.
As shown in the protocol in FIG. 7, normal rats (6-week-old male SD rats, a weight of 155 to 175 g/body) were fasted for 24 hours, then the weights and fasting blood glucose levels were determined, and the rats were randomly separated into two groups. As the administration solutions, a solution containing only glucose at a concentration of 4% and a solution having a sugar concentration of 4% in which D-allose was contained at 10% and glucose was contained at 90% were prepared, and each osmotic pressure was determined.
as §9
FIG. 8 show the test result of blood glucose level of the two groups of a group of the solution containing only glucose at a concentration of 4% and a group of the solution having a sugar concentration of 4% in which D-allose was contained at 10% and glucose was contained at 90%.

Assay [12] has as its system diabetic model rats (SDT fatty rats). Nature of the assay: Blood glucose level after intraperitoneal administration of PDF-based dialysate, diabetic model rats, Test Example 2. Type of assay: in vivo, rat. The note with it: PDF-based solutions. As for the experimental part:
As shown in the protocol in FIG. 9, 35- to 42-week-old male SDT fatty rats (a weight of 380 to 490 g) as diabetic model rats were fasted for 24 hours, then the weights and fasting blood glucose levels were determined, and the rats were randomly separated into two groups. As the administration solutions, the original solution was changed to PDF, and a solution containing only glucose as the sugar at a concentration of 4%, a solution having a sugar concentration of 4% in which D-allose was contained at 10% and glucose was contained at 90% were prepared, and each osmotic pressure of the two solutions was determined.
FIG. 10 show the test result of blood glucose level of the two groups of a group of the solution containing only glucose at a concentration of 4% and a group of the solution having a sugar concentration of 4% in which D-allose was contained at 10% and glucose was contained at 90%.
The diabetic model rats had more weights and higher fasting blood glucose levels than those of the normal rats. Blood samples were difficult to collect from the tails of the diabetic rats and thus were collected from the jugular vein, and the blood glucose levels were determined by using the same blood glucose meter as above. The model rats had diabetes, and thus the blood glucose level increase was slow as compared with the normal rats.

Assay [13] relates to male SD rats. In words: Blood glucose level after intraperitoneal administration of D-allulose dialysate, normal rats, Test Example 3. The format is in vivo, rat. To be noted: PDF-based, vs control group. The source says:
The number of dialysis patients due to end-stage renal failure has been increasing; diabetic nephropathy is the main basic disease of end-stage renal failure; peritoneal dialysis patients can work during the day and has high QOL; peritoneal dialysis uses an osmotic pressure difference by glucose to remove water and toxins; and glucose in a peritoneal dialysate is absorbed through the peritoneum into the body to increase the blood glucose level, and this may worsen prognosis of a dialysis patient with diabetes. Considering the above circumstances, Kagawa University is only the organization capable of producing all rare sugars in the world and can research the rare sugar optimum for an intended dialysate.
The test example of D-allulose includes a substitution example and an addition example. In the substitution example, D-allose in FIG. 7 was substituted with D-allulose.
To male SD rats, a control solution as a solution in which a peritoneal dialysis fluid (PDF) was mixed with glucose, a 10% substitution solution as a solution in which 10% (by weight) of glucose to be mixed was substituted with D-allulose, or a 10% load solution as a solution in which D-allulose was added to the control solution in an amount corresponding to 10% by weight of glucose was intraperitoneally administered in the same volume, and blood glucose levels were determined over time.

Where [14] appears, read: summary of results, drug concentration 128, 64, 32 μg/ml, bacterium not named.
[15] abbreviates: intraperitoneal, 0, 2, 4, and 6 hours.
The mark [16] stands for this setting: Enterococcus faecalis, read-out: MIC.
[17] abbreviates: Escherichia coli, read-out: MIC.
The mark [18] stands for this setting: Staphylococcus aureus, read-out: MIC.

A word on the MIC: it is the least concentration at which growth counts as inhibited. Turning to `O=C(CO)[C@@H](O)[C@@H](O)[C@@H](O)CO` [Sample 4), L-allulose], the MIC in [1], in assay [2], in assay [3], in assay [4], in [5] and in assay [6] was >70 mg/mL in each case. For the same compound, the results for the MIC in [7] and in [8] (setting [14]) were >70 mg/mL and 0.128 mg/mL (≈ 0.71 mM), respectively.
Consider `O=C[C@H](O)[C@H](O)[C@H](O)[C@H](O)CO` [Sample 5), D-allose], for which the “AUC of blood glucose level” value in [9] (Tukey-Kramer test) was “significant declining trend”; in assay [10] (intraperitoneal, t-test) it was “suppressive effect on the blood glucose level increase with a significant difference”; in [12] (t-test), “suppressive effect on the blood glucose level increase with a significant difference”. In assay [9] (fasted 24 hours, vs glucose-only solution), the “blood glucose level increase (time course)” value is on record as “increase suppressive effect with a significant difference; also recorded: suppressed”. Further, the “blood glucose level increase” value in [10] (setting [15]), in assay [11] and in assay [12] (setting [15]) was “suppressed” each time. In addition, the MIC in assay [1] (read-out: MIC), in [2] (setting [16]), in [3] (setting [17]), in assay [4] (read-out: MIC), in assay [5] (setting [18]) and in [6] (read-out: MIC) was > 70 mg/mL throughout. Further, the MIC in assay [7] (read-out: MIC) was 70 mg/mL (≈ 389 mM); in assay [8] it was 0.064 mg/mL (≈ 0.355 mM).
In the case of `O=C[C@H](O)[C@@H](O)[C@H](O)[C@H](O)CO` [Sample 1), D-glucose], the MIC in assay [1] (read-out: MIC), in assay [2] (setting [16]), in assay [3] (setting [17]), in assay [4] (read-out: MIC), in [5] (setting [18]) and in [6] (read-out: MIC) was > 70 mg/mL each time. Also, the MIC in assay [7] (read-out: MIC) was > 70 mg/mL.
On to `O=C(CO)[C@H](O)[C@H](O)[C@H](O)CO` [Sample 3), D-allulose], for which the “blood glucose level increase (BS)” value in [13] is listed as “significantly suppressed”. In addition, the MIC in assay [1], in [2], in assay [3], in [4], in assay [5] and in assay [6] was >70 mg/mL each time. For the same compound, the MIC in [7] is >70 mg/mL; in [8] (setting [14]) it was > 0.128 mg/mL.
With `O=C(CO)[C@@H](O)[C@H](O)[C@H](O)CO` [Sample 2), D-Fructose], the MIC in assay [1] (read-out: MIC), in [2] (setting [16]), in [3] (setting [17]), in assay [4] (read-out: MIC), in assay [5] (setting [18]) and in assay [6] (read-out: MIC) was > 70 mg/mL throughout. The MIC in assay [7] (read-out: MIC) was > 70 mg/mL.

The record behind these values is US20220175931A1, “OSMOTIC PRESSURE REGULATOR FOR PERITONEAL DIALYSATE CONTAINING D-ALLOSE AND/OR D-ALLULOSE” (NATIONAL UNIVERSITY CORPORATION KAGAWA UNIVERSITY, priority 2019, published 2022).
